Structures can show the parent of a compound that is named as a salt.
Assays:
[1] = biological target: trypanothione synthetase of L. infantum (LiTryS) (Leishmania infantum, UniProt A4I2Z3); test: TryS activity screening assay on recombinant LiTryS; assay type: biochemical; conditions: read-out: LiTryS activity [% at 30 μM]
Method: TryS from different trypanosomatids was produced in recombinant form with an N-terminal His-tag. The constructs pET-15b TbTryS and pET-28c(+)LiTryS were used to express TryS of T. b. brucei 427 (MITat1.4, GenBank accession protein id CAC87573.1), and L. infantum JPCM5 (GenBank accession protein id CAM69145.1). E. coli strain BL21 (DE3) served as the expression host. For TbTryS, the cells were cultured in a medium based in Terrific Broth and induction with isopropyl 1-thio-β-D-galactopyranoside (IPTG), while for LiTryS, the cells were cultured in ZYM-5052 auto-induction medium. For a detailed description of the expression, see Benítez et al.. The purification was performed by immobilised metal affinity chromatography in a HisTrap Fast Flow column (GE Healthcare) followed by size exclusion chromatography. […] The fractions containing recombinant TryS with ≥95% purity were pooled and concentrated to >10 mg protein/mL using a 10 kDa cut-off Amicon filter (Millipore, Billerica, CA). Glycerol was added at a final concentration of 40% (v/v). The samples were stored at -80°C. Enzyme purity and activity were assessed by SDS-PAGE (12%) under reducing conditions and by the end-point TryS assay (see TryS activity screening assay), respectively. Protein concentration was determined using the bicinchoninic acid assay with bovine serum albumin as standard. The protocols yielded 25–30 mg TbTryS or LiTryS per litre of culture medium and homogeneous specific activity.
For all TryS, ATP was used at 150 μM because of a high background signal at higher concentrations and Spd fixed at 2 mM, in agreement with the intracellular levels calculated from data reported in the literature for trypanosomatids. GSH was adjusted to 0.05 and 0.25 mM for TbTryS and LiTryS, respectively, to avoid substrate inhibition or to approach physiological concentrations. […] Microtiter plate wells were loaded with 5 μL of the test compound, DMSO (reaction control) or a TryS specific inhibitor (inhibition control) and 40 μL of MM solution. The reactions were then started by adding 5 μL of TryS (2 and 3*10^−5 μmol*min^-1*mL^-1 for LiTryS and TbTryS, respectively) and stopped after 15 min with 200 μL BIOMOL® GREEN reagent (Enzo Life Sciences). The compounds used as inhibition control were added at concentrations that inhibited 50% TryS activity: 30 μM and 150 nM MOL2008 for TbTryS and LiTryS, respectively. Blanks were prepared for each condition by adding 5 μL of screening reaction buffer instead of the enzyme. The TryS activity is calculated as follows: TrySactivity%=A650nmCi-A650nmCiB/A650nmE-A650nmEB*100%
A650 nm Ci is the mean absorbance at 650 nm for the reaction test with compound I (Ci), A650 nm CiB is the mean absorbance at 650 nm for the blank control with compound I (CiB), A650 nm E is the mean absorbance at 650 nm for the reaction control with DMSO (E) and A650 nm EB is the mean absorbance at 650 nm for the blank control with DMSO (EB). The errors were expressed as 2 standard deviations (SD), SD estimated as σ^n−1.

[2] = test system: L. infantum amastigotes (intracellular, in J774.A1 macrophages); test: Viability assay for L. infantum amastigotes; assay type: cell-based; conditions: Leishmania infantum, J774.A1, 24 h, read-out: L. infantum amastigote viability [% at 20 μM]
Method: Viability assay for L. infantum amastigotes. L. infantum promastigotes from the reference strain MHOM/MA/67/ITMAP263, stably transfected with a vector encoding a red-shifted luciferase gene (RE9HLUC; Branchini et al.; Benítez et al.) were grown in fresh complete RPMI medium (RPMI basic medium containing 25 mM HEPES, 10% v/v iFBS, 100 U/mL penicillin, 100 μg/mL streptomycin and 15 μg/mL hygromycin B) at 28°C in sealed culture flasks. Metacyclic promastigotes were obtained by a negative selection procedure using peanut agglutinin and used to infect murine macrophages (cell line J774.A1) at a 1:10 ratio for macrophages (5×10^6 cells): parasites (5×10^7 cells). 200 μL of this suspension was added per well to a 96-well culture microplate, which was then incubated at 37°C for 24 h in a 5% CO2/95% air atmosphere incubator. […] The culture microplate was incubated in the CO2 incubator for additional 24 h. Next, the supernatant was removed and the microplate wells were washed with pre-warmed PBS (200 μL). […] All conditions were tested in triplicates and the percentage amastigote viability was calculated as described for infective T. b. brucei, with errors expressed as one SD, estimated as σ^n-1.
A macrophage cell density correction factor based on the incorporation of propidium iodide was calculated and applied to normalise amastigote viability related to host cell density in the well. For a detailed explanation of the protocol, see Benítez et al..

trypanothione synthetase of L. infantum (LiTryS), sequence (A4I2Z3 entry or part of it): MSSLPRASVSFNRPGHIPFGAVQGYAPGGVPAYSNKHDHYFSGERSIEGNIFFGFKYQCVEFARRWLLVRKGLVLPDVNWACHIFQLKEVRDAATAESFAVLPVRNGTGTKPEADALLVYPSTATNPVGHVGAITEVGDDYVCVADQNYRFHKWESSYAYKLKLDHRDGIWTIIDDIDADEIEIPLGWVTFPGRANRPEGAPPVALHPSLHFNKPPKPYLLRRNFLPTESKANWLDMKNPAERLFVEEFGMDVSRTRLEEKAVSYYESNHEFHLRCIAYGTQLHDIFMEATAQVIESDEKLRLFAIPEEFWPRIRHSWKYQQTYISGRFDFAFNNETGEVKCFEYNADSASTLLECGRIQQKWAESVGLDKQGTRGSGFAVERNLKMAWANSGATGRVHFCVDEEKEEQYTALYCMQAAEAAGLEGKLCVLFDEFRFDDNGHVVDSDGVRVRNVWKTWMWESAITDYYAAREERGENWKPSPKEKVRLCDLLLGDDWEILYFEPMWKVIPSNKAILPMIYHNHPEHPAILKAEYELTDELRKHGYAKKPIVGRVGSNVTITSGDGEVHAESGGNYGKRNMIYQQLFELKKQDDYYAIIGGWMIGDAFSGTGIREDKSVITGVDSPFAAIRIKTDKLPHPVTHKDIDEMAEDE

Compound | activity at 30 µM [1] [%] | viability at 20 µM [2] [%]
CC(C)(C)OC(=O)N1CCN(CCNC(=O)CN2C(=O)CCCc3ccccc32)CC1 [2b, tert-Butyl 4-{2-[2-(2-oxo-2,3,4,5-tetrahydro-1H-benzo[b]azepin-1-yl)acetamido]ethyl}piperazine-1-carboxylate] | 91.4 ± 3.1 | 89.5 ± 9.9
CC(C)(C)OC(=O)NCCNC(=O)CN1C(=O)CCCc2ccccc21 [2c, tert-Butyl {2-[2-(2-oxo-2,3,4,5-tetrahydro-1H-benzo[b]azepin-1-yl)acetamido]ethyl}carbamate] | 96.7 ± 7.5 | 
CC(C)(C)OC(=O)N1CCN(C(=O)CN2C(=O)CCCc3ccccc32)CC1 [2d, tert-Butyl 4-[2-(2-oxo-2,3,4,5-tetrahydro-1H-benzo[b]azepin-1-yl)acetyl]piperazine-1-carboxylate] | 108 ± 14.6 | 
CN(CCNC(=O)CN1C(=O)CCCc2ccccc21)C(=O)OC(C)(C)C [2e, tert-Butyl methyl-{2-[2-(2-oxo-2,3,4,5-tetrahydro-1H-benzo[b]azepin-1-yl)acetamido]ethyl}carbamate] | 92.5 ± 37.2 | 
CC(C)(C)OC(=O)NCCCCNC(=O)CN1C(=O)CCCc2ccccc21 [2f, tert-Butyl {4-[2-(2-oxo-2,3,4,5-tetrahydro-1H-benzo[b]azepin-1-yl)acetamido]butyl}carbamate] | 83.6 ± 8.7 | 
CC(C)(C)OC(=O)NC1CCN(C(=O)CN2C(=O)CCCc3ccccc32)CC1 [2g, tert-Butyl {1-[2-(2-oxo-2,3,4,5-tetrahydro-1H-benzo[b]azepin-1-yl)acetyl]piperidine-4-yl}carbamate] | 93.3 ± 6.1 | 
O=C(CN1C(=O)CCCc2ccccc21)N1CCOCC1 [2h, 1-(2-Morpholino-2-oxoethyl)-1,3,4,5-tetrahydro-2H-benzo[b]azepin-2-one] | 92.7 ± 9.2 | 
O=C(CN1C(=O)CCCc2ccccc21)N1CCCCC1 [2i, 1-[2-Oxo-2-(piperidin-1-yl)ethyl]-1,3,4,5-tetrahydro-2H-benzo[b]azepin-2-one] | 89.4 ± 4.6 | 
CCN(CC)C(=O)CN1C(=O)CCCc2ccccc21 [2k, N,N-Diethyl-2-(2-oxo-2,3,4,5-tetrahydro-1H-benzo[b]azepin-1-yl)acetamide] | 92.9 ± 6.4 | 
NCCNC(=O)CN1C(=O)CCCc2ccccc21 [2p, N-(2-Aminoethyl)-2-(2-oxo-2,3,4,5-tetrahydro-1H-benzo[b]azepin-1-yl)acetamide hydrochloride] | 82.4 ± 9.5 | 
CNCCNC(=O)CN1C(=O)CCCc2ccccc21 [2r, N-[2-(Methylamino)ethyl]-2-(2-oxo-2,3,4,5-tetrahydro-1H-benzo[b]azepin-1-yl)acetamide hydrochloride] | 88.9 ± 10.4 | 
NCCCCNC(=O)CN1C(=O)CCCc2ccccc21 [2s, N-(4-Aminobutyl)-2-(2-oxo-2,3,4,5-tetrahydro-1H-benzo[b]azepin-1-yl)acetamide hydrochloride] | 104 ± 5.3 | 
O=C(CN1C(=O)CCCc2ccccc21)NCCN1CCOCC1 [2t, N-(2-Morpholinoethyl)-2-(2-oxo-2,3,4,5-tetrahydro-1H-benzo[b]azepin-1-yl)acetamide hydrochloride] | 91 ± 3.9 | 71.2 ± 1.5
CN1CCN(CCNC(=O)CN2C(=O)CCCc3ccccc32)CC1 [2u, N-[2-(4-Methylpiperazin-1-yl)ethyl]-2-(2-oxo-2,3,4,5-tetrahydro-1H-benzo[b]azepin-1-yl)acetamide dihydrochloride] | 106 ± 9.8 | 85 ± 10.6
CN1CCN(C(=O)CN2C(=O)CCCc3ccccc32)CC1 [2v, 1-[2-(4-Methylpiperazin-1-yl)-2-oxoethyl]-1,3,4,5-tetrahydro-2H-benzo[b]azepin-2-one hydrochloride] | 98.2 ± 13.7 | 72.4 ± 0.3
CC(C)(C)OC(=O)N1CCN(CCNC(=O)CN2C(=O)C(C)(C)CCc3ccccc32)CC1 [3b, tert-Butyl 4-{2-[2-(3,3-dimethyl-2-oxo-2,3,4,5-tetrahydro-1H-benzo[b]azepin-1-yl)acetamido]ethyl}piperazine-1-carboxylate] | 107 ± 12.6 | 94.8 ± 2.5
CN(CCNC(=O)CN1C(=O)C(C)(C)CCc2ccccc21)C(=O)OC(C)(C)C [3c, tert-Butyl {2-[2-(3,3-dimethyl-2-oxo-2,3,4,5-tetrahydro-1H-benzo[b]azepin-1-yl)acetamido]ethyl}(methyl)carbamate] | 104 ± 7.1 | 
CNCCNC(=O)CN1C(=O)C(C)(C)CCc2ccccc21 [3e, 2-(3,3-Dimethyl-2-oxo-2,3,4,5-tetrahydro-1H-benzo[b]azepin-1-yl)-N-[2-(methylamino)ethyl]acetamide hydrochloride] | 99.8 ± 7.1 | 
CN(CCNC(=O)CN1C(=O)Cc2ccccc2-c2ccccc21)C(=O)OC(C)(C)C [4c, tert-Butyl N-methyl-{2-[2-(6-oxo-6,7-dihydro-5H-dibenzo[b,d]azepin-5-yl)acetamido]ethyl}carbamate] | 87.6 ± 4.6 | 
CO/N=C1\CCC(=O)N(CC(=O)NCCN2CCN(C(=O)OC(C)(C)C)CC2)c2ccccc21 [5b, tert-Butyl (E/Z)-4-(2-{2-[5-(methoxyimino)-2-oxo-2,3,4,5-tetrahydro-1H-benzo[b]azepin-1-yl]acetamido}ethyl)piperazine-1-carboxylate] | 97.8 ± 13.3 | 93 ± 9.3
O=C(O)CN1C(=O)Cc2ccccc2-c2ccccc21 [compound 19, 2-(6-Oxo-6,7-dihydro-5H-dibenzo[b,d]azepin-5-yl)acetic acid] | 97.8 ± 6.1 | 
CO/N=C1\CCC(=O)Nc2ccccc21 [compound 20, (E)-5-methoxyimino-1,3,4,5-tetrahydro-2H-benzo[b]azepin-2-one] | 102 ± 2.4 | 
CO/N=C1\CCC(=O)N(CC(=O)OC(C)(C)C)c2ccccc21 [compound 21, tert-Butyl (E/Z)-2-(5-(methoxyimino)-2-oxo-2,3,4,5-tetrahydro-1H-benzo[b]azepin-1-yl)acetate] | 92.4 ± 10.3 | 
CO/N=C1\CCC(=O)N(CC(=O)O)c2ccccc21 [compound 22, (E/Z)-2-(5-(Methoxyimino)-2-oxo-2,3,4,5-tetrahydro-1H-benzo[b]azepin-1-yl)acetic acid] | 96.7 ± 5.2 | 

— article PMC10688702, “The indole motif is essential for the antitrypanosomal activity of N^5-substituted paullones” (PLOS ONE, 2023)
